Measurements from patent US8946439B2, “Amide compounds, compositions and uses thereof” (Evotec AG, priority 2008, dated 2015).
Like-named read-outs stand apart in the source and are kept apart here.

How the values were obtained:
[1] = biological target: T1, hP2X2/3H (Homo sapiens, UniProt P56373+Q9UBL9); assay: Calcium uptake assay (P2X antagonist assay), P2X2/3 heteromer; format: cell-based; details: hP2X2/3H
T1 construct: expressed in transfected cells; host or cells: e.g. HEK293 or 1321N1
T1 sequence (Q9UBL9 1-471): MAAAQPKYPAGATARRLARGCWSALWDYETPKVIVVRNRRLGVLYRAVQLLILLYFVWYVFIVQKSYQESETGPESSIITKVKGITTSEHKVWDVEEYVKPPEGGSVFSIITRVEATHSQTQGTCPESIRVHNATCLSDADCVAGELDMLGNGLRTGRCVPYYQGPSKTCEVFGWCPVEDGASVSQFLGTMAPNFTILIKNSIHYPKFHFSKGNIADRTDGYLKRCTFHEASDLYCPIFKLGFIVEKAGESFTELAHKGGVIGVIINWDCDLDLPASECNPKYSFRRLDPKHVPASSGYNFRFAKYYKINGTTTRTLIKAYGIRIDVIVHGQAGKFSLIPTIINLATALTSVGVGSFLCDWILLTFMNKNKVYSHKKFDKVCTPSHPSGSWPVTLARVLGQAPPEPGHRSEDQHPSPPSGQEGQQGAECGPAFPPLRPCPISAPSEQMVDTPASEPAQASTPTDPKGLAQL
T1 sequence (P56373 1-397): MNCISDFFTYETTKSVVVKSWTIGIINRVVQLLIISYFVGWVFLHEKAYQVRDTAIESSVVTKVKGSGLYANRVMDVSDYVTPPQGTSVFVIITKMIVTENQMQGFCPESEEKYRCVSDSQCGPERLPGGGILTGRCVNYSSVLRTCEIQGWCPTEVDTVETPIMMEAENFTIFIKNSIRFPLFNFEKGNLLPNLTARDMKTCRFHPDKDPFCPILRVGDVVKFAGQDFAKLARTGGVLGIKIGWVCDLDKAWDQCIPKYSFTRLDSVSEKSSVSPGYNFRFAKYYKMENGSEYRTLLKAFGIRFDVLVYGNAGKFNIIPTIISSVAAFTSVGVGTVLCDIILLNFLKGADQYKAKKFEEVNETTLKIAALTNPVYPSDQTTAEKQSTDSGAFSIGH
Source text: (§1) The human P2X2/3 chimera clone is created as described by Neelands et al, and then cloned into an expression vector as above. Receptors are expressed in cells (e.g., HEK293 or 1321N1 (obtained from the ECACC)) via transient transfection using standard lipid mediated transfection, or by creation of stable transfectants for each receptor. For expression of the P2X2/3 heteromeric receptor, the P2X3 expression vector is stably transfected into a cell line already stably expressing P2X2. P2X2/3 heteromer function is isolated using pharmacological methods. Cell lines are maintained in DMEM+5% Glutamax, the appropriate level of selective antibiotic, and 10% heat inactivated FBS.
(§2) Functional activity of compounds at the P2X receptor is determined by measuring their ability to inhibit agonist-induced calcium influx. Compounds are tested for antagonist activity against the P2X2/3 chimera, the P2X3 homomer, or the P2X2/3 heteromer. At the start of each screening day, the agonist EC50 is determined. Compound % inhibition or IC50s are subsequently determined using a predetermined agonist concentration (EC50-90 depending on cell line) as a stimulus. The agonists used are αβMeATP, ATP, or other ATP analogs. Compounds may be tested at concentrations ranging from 1 pM to 10 μM.
(§3) To test for antagonist activity, cells expressing the appropriate receptor are seeded onto 96 or 384 well plates 18-24 hours prior to assay. […] Plates are incubated at 37° C. and then equilibrated at room temperature. Antagonism of agonist-induced calcium influx is measured using a fluorescent imaging plate reader (e.g. FLIPR^TETRA, Molecular Devices, Sunnyvale, Calif.). The assay comprises two stages: a pre-treatment phase followed by a treatment phase. Compounds may be tested as follows: For the pre-treatment phase, 50 μL of 3× concentration of test compound in HBSS is added to cells containing […], of dye loading media to achieve a final concentration of 1× test compound. For the treatment phase, at a set interval after pre-treatment (1-30 minutes), 50 μL of 1× test compound plus 4× agonist solution is added, resulting in a final concentration of 1× compound and 1× agonist. […] Responses are measured as (peak fluorescence after agonist addition) minus (baseline fluorescence prior to treatment). Percent inhibition is calculated as follows:
(§4) [formula] IC50 values are determined by analyzing dose response data in a 4 parameter logistic fit using GraphPad Prizm.

[2] = biological target: T2, hP2X3 (Homo sapiens, UniProt P56373); assay: Calcium uptake assay (P2X antagonist assay), P2X3 homomer; format: cell-based; details: hP2X3
T2 construct: expressed in transfected cells; host or cells: e.g. HEK293 or 1321N1
T2 sequence (P56373 1-397): T1 sequence (P56373 1-397)
Source text: as §1, §2, §3, §4

[3] = Ca influx (calcium uptake assay), read-out: IC50 hP2X2/3H
[4] = Ca influx (calcium uptake assay), read-out: IC50 hP2X3
[5] = calcium uptake assay, read-out: IC50 hP2X2/3H (nM), Ca Influx
[6] = calcium uptake assay, read-out: IC50 hP2X3 (nM), Ca Influx

Structure (SMILES)	IC50 [1, 3] [nM]	IC50 [2, 4] [nM]	IC50 [1, 5] [nM]	IC50 [2, 6] [nM]
COCC(CO)Oc1cc(C(=O)N[C@H](C)c2ccc(C)nc2)cc(-c2ccc(C)cn2)c1 (stereo partly shown) [Compound 348]	< 100	< 100		
Cc1ccc(-c2cc(C(=O)NCc3ccc(C)nc3)cc(C(=O)N3CC[C@@H](N)C3)c2)cc1 [Compound 101]			501 to 1000	100 to 500
Cc1ccc(-c2cc(C(=O)NCc3cnc(C)nc3)cc(S(C)(=O)=O)c2)nc1 [Compound 307]	> 1000	< 100		
Cc1ccc(-c2cc(OC(C)CO)cc(C(=O)N[C@H](C)c3ccc(C)nc3)c2)cc1 (stereo partly shown) [Compound 346]	< 100	< 100		
Cc1ccc(-c2cc(C(=O)N[C@H](C)c3cnc(C)nc3)cc(S(=O)(=O)C(C)C)c2)cc1 [Compound 198]	< 100	< 100		
Cc1ccc(-c2cc(C(=O)N[C@H](C)c3cnc(C)nc3)cc(C(O)c3ccccc3)c2)nc1 (stereo partly shown) [Compound 277]	< 100	< 100		
Cc1ccc(-c2cc(OC3CNCC3O)cc(C(=O)N[C@H](C)c3ccc(C)nc3)c2)cc1 (stereo partly shown) [Compound 327]	100 to 500	< 100		
Cc1ccc(-c2cc(OCC(O)CO)cc(C(=O)N[C@H](C)c3ccc(C)nc3)c2)c(C#N)c1 (stereo partly drawn) [Compound 315, 2′-Cyano-5-(2,3-dihydroxypropoxy)-4′-methyl-N—((R)-1-(6-methylpyridin-3-yl)ethyl)biphenyl-3-carboxamide]	100 to 500	< 100		
Cc1ccc(-c2cc(C(=O)NCc3ccc(C)nc3)cc(C(=O)N(C)[C@H]3CCNC3)c2)cc1 [Compound 172]			100 to 500	< 100
Cc1ccc(-c2cc(C(=O)N[C@H](C)c3cnc(C)nc3)cc(C(O)c3ccccn3)c2)c(C#N)c1 (stereo partly shown) [Compound 285]	< 100	< 100		
Cc1ccc(-c2cc(C(=O)NCc3ccn4ccnc4c3)cc(C(=O)N(C)CC(C)C)c2)cc1 [Compound 11, N3-(Imidazo[1,2-a]pyridin-7-ylmethyl)-N5-isobutyl-N5,4′-dimethylbiphenyl-3,5-dicarboxamide]			100 to 500	< 100
Cc1ccc(-c2cc(C(=O)NCc3ccc(C)nc3)cc(C(=O)N(C)[C@@H]3CCNC3)c2)cc1 [Compound 165, (R)—N3,4′-Dimethyl-N5-((6-methylpyridin-3-yl)methyl)-N3-(pyrrolidin-3-yl)biphenyl-3,5-dicarboxamide]			501 to 1000	100 to 500
Cc1ccc(-c2cc(Oc3nc(-c4ccccc4)cs3)cc(C(=O)N[C@H](C)c3ccc(C)nc3)c2)nc1 [Compound 375]	100 to 500	100 to 500		
Cc1ccc(CNC(=O)c2cc(-c3ccc(C)c(C)c3)cc(S(C)(=O)=O)c2)cn1 [Compound 121]			> 1000	> 1000
CCS(=O)(=O)c1cc(C(=O)NCc2cnc(C)nc2)cc(-c2ccc(C)cc2)c1 [Compound 212]	< 100	< 100		
COc1ncc([C@@H](C)NC(=O)c2cc(C(=O)N3CCC3)cc(-c3ccc(C)cc3)c2)cn1 [Compound 77]			< 100	< 100
CCS(=O)(=O)c1cc(C(=O)N[C@H](C)c2ccc(C)nc2)cc(-c2ccc(C)cc2)c1 [Compound 209]	< 100	< 100		
Cc1ccc(-c2cc(C(=O)NCc3ccc(C)nc3)cc(C(F)(F)F)c2)cc1 [Compound 204]	501 to 1000	> 1000		
CCC(O)c1cc(C(=O)N[C@H](C)c2cnc(C)nc2)cc(-c2ccc(C)cc2C#N)c1 (stereo partly shown) [Compound 396]	< 100	< 100		

Structure (SMILES)	IC50 [1, 3] [nM]	IC50 [2, 4] [nM]	IC50 [1, 5] [nM]	IC50 [2, 6] [nM]
Cc1ccc(-c2cc(C(=O)NCc3cnc4[nH]ccc4c3)cc(C(=O)N3CCCC3)c2)cc1 [Compound 231]	> 1000	> 1000		
Cc1ccc(-c2cc(C(=O)N[C@H](C)c3ccc(C)nc3)cc(C(O)CO)c2)cc1 (stereo partly shown) [Compound 289]	< 100	< 100		
Cc1ccc(-c2cc(OCC3CCCO3)cc(C(=O)N[C@H](C)c3ccc(C)nc3)c2)c(C#N)c1 (stereo partly shown) [Compound 312]	< 100	< 100		
Cc1ccc(-c2cc(C(=O)NCc3ccc(C)nc3)cc(C(=O)N3CCN4CCCC4C3)c2)cc1 (stereo not shown) [Compound 128]			< 100	< 100
Cc1ccc(-c2cc(C(=O)N[C@H](C)c3cnc(C)nc3)cc(C(=O)N(C)CC(C)C)c2)cc1 [Compound 14, (R)—N3-Isobutyl-N3,4′-dimethyl-N5-(1-(2-methylpyrimidin-5-yl)ethyl)biphenyl-3,5-dicarboxamide]			< 100	< 100
Cc1ccc(-c2cc(C(=O)NCc3ccc(Cl)nc3)cc(C(=O)N3CC(O)C3)c2)cc1 [Compound 131]			< 100	< 100
COCCOc1cc(C(=O)N[C@H](C)c2cnc(C)nc2)cc(-c2ccc(C)cc2)c1 [Compound 251]	< 100	< 100		
Cc1ccc(-c2cc(Oc3nc(Cl)cs3)cc(C(=O)N[C@H](C)c3ccc(C)nc3)c2)cc1 [Compound 341]	< 100	100 to 500		
Cc1ccc(-c2cc(C(=O)N[C@H](C)c3ccc(C)nc3)cc(C(O)CO)c2)c(C#N)c1 (stereo partly shown) [Compound 298]	< 100	< 100		
Cc1ccc(-c2cc(CO)cc(C(=O)N[C@H](C)c3cnc(C)nc3)c2)c(C#N)c1 [Compound 303]	100 to 500	< 100		
COCC(C)Oc1cc(C(=O)N[C@H](C)c2ccc(C)nc2)cc(-c2ccc(C)cc2C#N)c1 (stereo partly shown) [Compound 316]	< 100	< 100		
Cc1ccc(-c2cc(C(=O)NCc3cnc(C)nc3)cc(S(=O)(=O)CC(C)C)c2)cc1 [Compound 184]			< 100	< 100
Cc1ccc(-c2cc(C(=O)N[C@H](C)c3cnn(C)c3C)cc(C(=O)N3CCCC3)c2)cc1 [Compound 109]			501 to 1000	100 to 500
Cc1ccc(-c2cc(C(=O)NCc3ccc(C)nc3)cc(C(=O)N3CCCc4ccccc43)c2)cc1 [Compound 188]			100 to 500	100 to 500
CCOC(=O)c1cc(C(=O)NCc2cnc(C)nc2)cc(-c2ccc(C)cc2)c1 [Compound 15, Ethyl 4′-methyl-5-((2-methylpyrimidin-5-yl)methylcarbamoyl)biphenyl-3-carboxylate]			< 100	< 100
Cc1ccc(-c2cc(C(=O)NCc3ccc(Cl)nc3)cc(C(=O)N3CCCC3)c2)cc1 [Compound 91]			< 100	< 100
Cc1ccc(-c2cc(C(=O)NCc3ccc(C)nc3)cc(C(=O)N3CC[C@H](N(C)C)C3)c2)cc1 [Compound 142]			100 to 500	< 100
Cc1ccc(-c2cc(C(=O)N[C@H](C)c3ccc(C(F)(F)F)nc3)cc(C(=O)N3CC[C@@H](O)C3)c2)nc1 [Compound 150]			< 100	< 100
Cc1ccc(-c2cc(C(=O)NCc3ccc(C(F)(F)F)nc3)cc(S(C)(=O)=O)c2)cc1 [Compound 37, 4′-Methyl-5-(methylsulfonyl)-N-((6-(trifluoromethyl)pyridin-3-yl)methyl)biphenyl-3-carboxamide]			100 to 500	100 to 500
